# Experimental data published in ChEMBL document CHEMBL5715954, “Silencing c-Myc translation as a therapeutic strategy through targeting PI3Kδ and CK1ε in hematological malignancies” (Blood, 2017).
# Tests used:
# Design in all cases: scale not given: the % may be the effect or the level left
# [1] = target: Dual specificity protein kinase CLK3 (Homo sapiens) (UniProt P49761); test: Inhibition of human CLK3 assessed as enzyme activity at 1 uM using myelin basic protein as substrate preincubated for 20 mins followed by [gamma-33P]-ATP addition and measured after 120 mins by radiometric Hot-SpotSM Kinase assay relative to control
# [2] = target: T1, Mitogen-activated protein kinase kinase kinase 6 (Homo sapiens) (UniProt O95382); test: Inhibition of human MEKK6 assessed as enzyme activity at 1 uM using myelin basic protein as substrate preincubated for 20 mins followed by [gamma-33P]-ATP addition and measured after 120 mins by radiometric Hot-SpotSM Kinase assay relative to control
# T1 sequence (whole entry): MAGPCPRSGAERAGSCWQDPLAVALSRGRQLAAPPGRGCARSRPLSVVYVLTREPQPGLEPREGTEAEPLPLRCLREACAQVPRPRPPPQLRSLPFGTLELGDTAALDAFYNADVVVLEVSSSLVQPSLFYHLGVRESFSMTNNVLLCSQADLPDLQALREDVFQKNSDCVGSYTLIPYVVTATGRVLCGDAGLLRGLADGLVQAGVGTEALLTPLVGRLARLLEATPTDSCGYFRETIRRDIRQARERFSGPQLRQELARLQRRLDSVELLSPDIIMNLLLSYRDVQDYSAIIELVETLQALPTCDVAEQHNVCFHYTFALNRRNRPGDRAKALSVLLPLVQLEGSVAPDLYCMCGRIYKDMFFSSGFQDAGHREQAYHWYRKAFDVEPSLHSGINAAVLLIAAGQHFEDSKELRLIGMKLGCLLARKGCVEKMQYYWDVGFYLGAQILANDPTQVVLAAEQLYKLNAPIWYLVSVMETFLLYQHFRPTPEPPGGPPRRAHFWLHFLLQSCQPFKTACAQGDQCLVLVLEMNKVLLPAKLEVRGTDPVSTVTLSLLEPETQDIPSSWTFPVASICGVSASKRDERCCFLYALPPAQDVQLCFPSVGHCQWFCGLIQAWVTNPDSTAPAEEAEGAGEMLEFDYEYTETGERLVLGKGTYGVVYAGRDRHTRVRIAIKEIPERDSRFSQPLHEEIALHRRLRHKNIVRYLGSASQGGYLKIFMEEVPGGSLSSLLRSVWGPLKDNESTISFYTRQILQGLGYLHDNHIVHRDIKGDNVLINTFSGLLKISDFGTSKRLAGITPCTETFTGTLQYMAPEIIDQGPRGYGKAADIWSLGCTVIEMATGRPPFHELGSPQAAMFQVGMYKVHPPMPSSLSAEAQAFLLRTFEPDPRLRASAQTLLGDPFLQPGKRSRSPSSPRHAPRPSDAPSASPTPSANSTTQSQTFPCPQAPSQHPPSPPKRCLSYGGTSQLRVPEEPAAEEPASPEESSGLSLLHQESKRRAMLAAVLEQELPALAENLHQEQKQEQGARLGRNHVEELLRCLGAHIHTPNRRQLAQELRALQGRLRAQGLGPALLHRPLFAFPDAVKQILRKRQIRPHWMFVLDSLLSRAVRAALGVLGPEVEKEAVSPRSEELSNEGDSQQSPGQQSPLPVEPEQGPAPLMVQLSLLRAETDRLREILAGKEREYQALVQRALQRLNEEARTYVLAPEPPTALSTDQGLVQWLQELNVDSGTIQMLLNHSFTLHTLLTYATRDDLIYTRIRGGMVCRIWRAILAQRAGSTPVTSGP
# [3] = target: Serine/threonine-protein kinase PAK 1 (Homo sapiens) (UniProt Q13153); test: Inhibition of human PAK1 assessed as enzyme activity at 1 uM using RRRLSFAEPG as substrate preincubated for 20 mins followed by [gamma-33P]-ATP addition and measured after 120 mins by radiometric Hot-SpotSM Kinase assay relative to control
# [4] = target: T2, Mitogen-activated protein kinase kinase kinase 12 (Homo sapiens) (UniProt Q12852); test: Inhibition of human DLK/MAP3K12 assessed as enzyme activity at 1 uM using myelin basic protein as substrate preincubated for 20 mins followed by [gamma-33P]-ATP addition and measured after 120 mins by radiometric Hot-SpotSM Kinase assay relative to control
# T2 sequence (whole entry): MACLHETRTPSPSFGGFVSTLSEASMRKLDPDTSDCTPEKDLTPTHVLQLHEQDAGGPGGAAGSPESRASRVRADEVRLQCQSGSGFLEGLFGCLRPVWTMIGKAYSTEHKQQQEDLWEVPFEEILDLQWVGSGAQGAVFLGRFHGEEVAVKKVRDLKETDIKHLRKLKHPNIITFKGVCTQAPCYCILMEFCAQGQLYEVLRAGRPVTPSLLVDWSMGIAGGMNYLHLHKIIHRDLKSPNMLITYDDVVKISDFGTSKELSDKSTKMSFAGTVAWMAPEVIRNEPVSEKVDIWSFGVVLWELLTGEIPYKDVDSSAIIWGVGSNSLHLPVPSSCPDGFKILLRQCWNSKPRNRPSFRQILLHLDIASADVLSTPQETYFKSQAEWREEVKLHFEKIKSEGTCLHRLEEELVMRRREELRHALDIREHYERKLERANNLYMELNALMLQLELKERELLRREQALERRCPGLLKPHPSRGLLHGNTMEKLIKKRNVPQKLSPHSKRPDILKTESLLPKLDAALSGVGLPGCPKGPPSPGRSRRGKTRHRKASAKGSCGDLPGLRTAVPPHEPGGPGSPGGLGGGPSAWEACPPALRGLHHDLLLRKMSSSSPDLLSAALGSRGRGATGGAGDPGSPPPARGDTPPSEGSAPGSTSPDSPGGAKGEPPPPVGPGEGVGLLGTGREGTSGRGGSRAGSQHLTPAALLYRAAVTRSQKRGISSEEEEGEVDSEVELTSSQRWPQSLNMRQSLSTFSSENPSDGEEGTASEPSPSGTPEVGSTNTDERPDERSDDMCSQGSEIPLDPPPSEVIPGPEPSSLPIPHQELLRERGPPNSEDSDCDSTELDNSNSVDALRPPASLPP
# Sequence of Serine/threonine-protein kinase PAK 1 (Homo sapiens) (Q13153 whole entry): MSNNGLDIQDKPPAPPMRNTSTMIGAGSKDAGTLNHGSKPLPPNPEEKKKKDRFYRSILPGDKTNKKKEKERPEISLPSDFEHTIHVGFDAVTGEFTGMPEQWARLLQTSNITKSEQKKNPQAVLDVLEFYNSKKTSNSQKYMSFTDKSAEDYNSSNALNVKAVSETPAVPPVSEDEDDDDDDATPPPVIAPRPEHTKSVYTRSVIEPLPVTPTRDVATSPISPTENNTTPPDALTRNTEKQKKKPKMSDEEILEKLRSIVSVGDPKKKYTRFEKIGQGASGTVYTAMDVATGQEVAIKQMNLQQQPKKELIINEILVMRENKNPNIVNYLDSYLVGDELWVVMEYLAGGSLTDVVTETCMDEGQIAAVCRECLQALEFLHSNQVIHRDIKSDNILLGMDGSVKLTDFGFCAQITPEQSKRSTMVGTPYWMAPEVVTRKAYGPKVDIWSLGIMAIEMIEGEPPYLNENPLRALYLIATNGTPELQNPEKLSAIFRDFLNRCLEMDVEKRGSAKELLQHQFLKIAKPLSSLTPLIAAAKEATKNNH
# Sequence of Dual specificity protein kinase CLK3 (Homo sapiens) (P49761 whole entry, looked up): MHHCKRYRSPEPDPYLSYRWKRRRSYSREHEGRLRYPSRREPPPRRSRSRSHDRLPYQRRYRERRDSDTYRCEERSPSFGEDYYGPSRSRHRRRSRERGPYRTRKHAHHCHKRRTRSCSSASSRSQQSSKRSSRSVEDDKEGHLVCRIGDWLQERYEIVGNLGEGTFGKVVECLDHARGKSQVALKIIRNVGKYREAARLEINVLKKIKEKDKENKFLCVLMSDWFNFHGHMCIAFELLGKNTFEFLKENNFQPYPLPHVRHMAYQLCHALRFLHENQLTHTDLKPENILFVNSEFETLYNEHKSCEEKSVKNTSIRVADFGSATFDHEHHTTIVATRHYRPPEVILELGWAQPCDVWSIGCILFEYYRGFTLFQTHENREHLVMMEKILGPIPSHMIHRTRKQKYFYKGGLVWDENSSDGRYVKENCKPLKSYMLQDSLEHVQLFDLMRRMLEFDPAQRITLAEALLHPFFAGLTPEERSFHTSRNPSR
SMILES,Activity [1] [%],Activity [2] [%],Activity [3] [%],Activity [4] [%]
C[C@H](Nc1ncnc2nc[nH]c12)c1cc2cccc(Cl)c2c(=O)n1-c1ccccc1,92.3,97.5,97.5,107
CC[C@H](Nc1ncnc2[nH]cnc12)c1nc2cccc(F)c2c(=O)n1-c1ccccc1,89,96.6,98.7,110
CC(C)Oc1ccc(-c2nn([C@@H](C)c3oc4ccc(F)cc4c(=O)c3-c3cccc(F)c3)c3ncnc(N)c23)cc1F [UMBRALISIB],93.7,93.9,98.2,127
